The values below come from patent publication US20100144708A1, “HETEROCYCLIC COMPOUNDS CONTAINING NITROGEN ATOMS OR PHARMACEUTICALLY ACCEPTABLE SALTS THEREOF, PROCESS FOR THE PREPARATION THEREOF AND PHARMACEUTICAL COMPOSITION COMPRISING THE SAME FOR TREATMENT OF CANCER” (Korea Research Instititute of Bioscience and Biotechnology, priority 2006, published 2010).

Some results are limits rather than exact numbers.

Data set [1] has as its system human prostate cancer cell line PC-3. Kind of data set: Test for tumor growth inhibition in animal model (PC-3 xenograft). Type of data set: in vivo. The note with it: intraperitoneal; for effect of inhibiting tumor growth / reduction of tumor weight: final day (day 21). As for the experimental part:
Female S.P.F BALB/c nude mice (7-week-old) were grafted with 3×10^7 cells/□ of human prostate cancer cell line PC-3, and then intraperitoneally administered with the compound prepared in Example 55 at a daily dosage of 30 mg/kg 20 times. A positive control group was intraperitoneally administered with adriamycin at a daily dosage of 2 mg/kg 10 times once every two days.
The changes in their body weight are shown in FIG. 1, the changes in tumor size are shown in FIG. 2, and the tumor weights measured on the final day (day 21) are shown in FIG. 3.

For data set [2], the system named is ACHN (kidney cancer). In words: Test for inhibition of tumor cell growth (SRB), ACHN. The conditions noted are these: 48 hours, SRB staining; for GI50: Homo sapiens, ACHN. Type of data set: cell-based, Human. In a few lines:
(§1)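 Cells seeded in RPMI 1640 with 5% FBS, exposed to compound (final […], units as printed) for 48 hours at 37° C with 5% CO2, including a time-zero plate. TCA-fixed, SRB-stained, absorbance at 540 nm as percent of control; GI50 is the 50% growth-inhibition concentration.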
A general note: The SRB assay estimates cell density from bound dye.

The test system of data set [3] is PC-3 (prostate cancer). In words: Test for inhibition of tumor cell growth (SRB), PC-3. The note with it: 48 hours, SRB staining; for GI50: Homo sapiens, read-out: GI50 PC-3 (prostate ancer). Type of data set: cell-based, Human. In a few lines:
as §1

In data set [4] the test system is NUGC-3 (gastric cancer). In words: Test for inhibition of tumor cell growth (SRB), NUGC-3. Type of data set: cell-based, Human. The conditions noted are these: 48 hours, SRB staining; for GI50: Homo sapiens, NUGC-3. In a few lines:
as §1

For data set [5], the system named is MBA-MB-231 (breast cancer). Kind of data set: Test for inhibition of tumor cell growth (SRB), MBA-MB-231. Type of data set: cell-based, Human. The conditions noted are these: 48 hours, SRB staining; for GI50: Homo sapiens. In a few lines: as §1
For data set [6], the system named is human prostate cancer cell line, PC-3 cells. In words: Flow cytometric analysis of apoptosis (PI staining) with NAC. Type of data set: cell-based. The note with it: 5 uM NAC for 3 hours, then compound 5 uM for 24 hours; compared to cells treated with only the compound. Here is the method: 5×10^5 of human prostate cancer cell line, PC-3 cells were cultured in 60 mm diameter-culture dishes with RPMI 1640 media containing 5% FBS in an incubator supplied with 5% CO2 at 37° C. for one day, and then treated with 5 uM NAC (N-acetylcysteine, Sigma) for 3 hours. Then, the cells were treated with the compound prepared in Example 55 at concentrations of 5 uM, cultured for 24 hours. Subsequently, the cells were treated with 0.1% trypsin and detached. The detached cells were transferred to a 15[…] conical tube, and centrifuged at 200×g for 5 minutes to precipitate the cells. Then, the supernatant was removed. 0.5[…] of PBS solution containing 0.1 mg/□ RNase A was added thereto, so as to resuspend the cells. The cells were treated with a PI (propidium iodide) DNA staining solution in a concentration of 50[…]/□ to stain the DNA in the cells for 30 or more minutes. The PI-stained cells were e xcited using a flow cytometer (Becton Dickinson) at 488 nm by a laser beam, and an emission wavelength of 588 nm was represented by a histogram, and then quantitatively analyzed to determine the amount of DNA in the cells.

Data set [7] has the same test system. In words: Western blot analysis in PC-3 cells. Type of data set: cell-based. The note with it: 0, 2, and 5 uM, 24 hours. As for the experimental part: 4×10^6 of human prostate cancer cell line, PC-3 cells were cultured in 100 mm diameter-culture dishes with RPMI media containing 5% FBS for one day, and then treated with the compound prepared in Example 55 at concentrations of 0, 2, and 5 uM for 24 hours, respectively. Then, the cells were carefully washed with 10[…] of PBS twice, and 1 ml of PBS containing protease inhibitor cocktail (Roche, complete™-mini) (1 tablet/50[…] PBS) was added to the each dish. The cells were collected and sonicated. The sonicated cells were centrifuged using a microcentrifuge at 12000 rpm for 20 minutes, and the supernatant was collected. Then, the amount of protein was determined using a Bradford dye reagent (Bio-Rad), and after running 20[…] of the protein on an SDS-PAGE gel, the protein band was transferred to a nitrocellulose membrane (Bio-Rad). Subsequently, the amounts of each protein were analyzed using primary antibodies and secondary antibodies-HRP (horseradish peroxidase) that are specific to each protein to be tested (Amersham or Bio-Rad), and an ECL chemiluminescence reagent (Amersham).
In general terms: A western blot detects proteins with antibodies after separation by electrophoresis.

The mark [8] stands for this setting: 30 mg/kg daily, 20 times, vs vehicle-control, p<0.001.

As for `COc1cccc2c1C(=O)c1c(O)c3c(c(O)c1C2=O)C[C@@](O)(C(=O)CO)C[C@@H]3O[C@H]1C[C@H](N)[C@H](O)[C@H](C)O1` [adriamycin], the deaths result in data set [1] (2 mg/kg Q2D, 10 times) is listed as “four”. Moreover, the “effect of inhibiting tumor growth” value in data set [1] (2 mg/kg Q2D, 10 times, p<0.01) is 74.4%. The “reduction of tumor weight” value in data set [1] (2 mg/kg Q2D, 10 times, p<0.05) turned out to be 69.8%.
For `CCCCCCCCCCCC(=O)N1CC[N+](CC)(Cc2cccc(C)c2)CC1` [Example 55, 4-dodecanoyl-1-ethyl-1-(3-methylbenzyl)piperazin-1-ium bromide], in data set [2], it took 3.84 µg/mL to inhibit growth by half (GI50). Besides, in data set [3], the GI50 – broadly, the concentration giving 50% growth inhibition – amounted to 0.41 µg/mL. For the same compound, in data set [1] (setting [8]), the “effect of inhibiting tumor growth” value stood at 84.0% and the “reduction of tumor weight” value is 79.5%. In data set [4], this compound showed a GI50 of 0.9 µg/mL. Besides, halving of growth in data set [5] (GI50) required 4.37 µg/mL. In data set [6], the degree of apoptosis result was “greatly decreased”. In data set [7], the “amount of Bcl2” value is given as “down-regulated”, the “amount of RhoB” value is on record as “increased”, the amount of c-abl result is given as “increased” and the “amount of p53” value was “sharply increased”. Moreover, the “amount of phosphorylated p53” value in data set [7] is “sharply increased”.
Take `CCCCCCCCCCCCCCS(=O)(=O)N1CC[N+](C)(Cc2ccc(F)cc2)CC1` [Example 71, 1-(4-fluorobenzyl)-1-methyl-4-(tetradecane-1-sulfonyl)piperazin-1-ium bromide]: the GI50 amounted to 1.42 µg/mL in data set [2], 0.65 µg/mL in data set [3], 0.82 µg/mL in data set [4] and 1.14 µg/mL in data set [5].
For the compound `CCCCCCCCCC(=O)N1CC[N+](C)(CC)CC1` [Example 12, 4-decanoyl-1-ethyl-1-methylpiperazin-1-ium iodide], the GI50 in data set [2], in data set [3], in data set [4] and in data set [5] was greater than 10 µg/mL throughout.
With `CCCCCCCC(=O)N1CC[N+](C)(Cc2ccc(OC)cc2)CC1.[Cl-]` [Example 5, 1-(4-methoxy-benzyl)-1-methyl-4-octanoyl-piperazin-1-ium chloride], the concentration for 50% growth inhibition (GI50) in data set [2], in data set [3], in data set [4] and in data set [5] was greater than 10 µg/mL in each case.
For `CCCCCCCCCCCS(=O)(=O)N1CC[N+](CC)(Cc2ccccc2)CC1` [Example 64, 1-benzyl-1-ethyl-4-(undecane-1-sulfonyl)piperazin-1-ium bromide], the GI50 was determined as 1.43 µg/mL in data set [2], 0.67 µg/mL in data set [3], 0.36 µg/mL in data set [4] and 2.07 µg/mL in data set [5].
For `CCCCCCCCCCCCCCCCCCCCCC(=O)N1CC[N+](C)(Cc2ccccc2)CC1` [Example 35, 1-benzyl-4-docosanoyl-1-methylpiperazin-1-ium bromide], in that order: 4.74 µg/mL, 1.24 µg/mL, 1.9 µg/mL and 1.98 µg/mL.
For `CCCCCCCCCCCCCCCCCCCCCCCC(=O)N1CC[N+](C)(CC)CC1` [Example 42, 1-ethyl-1-methyl-4-tetracosanoylpiperazin-1-ium iodide] the same measures were greater than 10 µg/mL, 3.77 µg/mL, greater than 10 µg/mL and greater than 10 µg/mL.
For `CCCCCCCC(=O)N1CC[N+](C)(Cc2ccccc2)CC1.[Br-]` [Example 3, 1-benzyl-1-methyl-4-octanoyl-piperazin-1-ium bromide], the GI50 in data set [2], in data set [3], in data set [4] and in data set [5] was greater than 10 µg/mL in each case.
In the case of `CCCCCCCCCCCCCCCCCCS(=O)(=O)N1CC[N+](C)(Cc2ccccc2)CC1` [Example 115, 1-benzyl-1-methyl-4-(octadecane-1-sulfonyl)piperazin-1-ium bromide], the GI50 in data set [2] was 2.01 µg/mL; in data set [3], 0.48 µg/mL; in data set [4], 1.07 µg/mL; in data set [5] it was 0.91 µg/mL.
For `CCCCCCCCCCCCCCCC(=O)N1CCC[N+](C)(Cc2ccccc2)CC1` (centres unmarked) [Example 125, 1-benzyl-1-methyl-4-palmitoyl-1,4-diazepan-1-ium bromide] the same measures were 0.8 µg/mL, 0.35 µg/mL, 0.53 µg/mL and 0.86 µg/mL.
For `CCCCCCCCCCS(=O)(=O)N1CC[N+](C)(Cc2ccc(C)cc2)CC1` [Example 107, 4-(decane-1-sulfonyl)-1-methyl-1-(4-methylbenzyl)piperazin-1-ium bromide] the same measures were greater than 10 µg/mL, 1.05 µg/mL, 2.72 µg/mL and greater than 10 µg/mL.
Take `CCCCCCCCCCCC(=O)N1CC[N+](CC)(Cc2cccc(F)c2)CC1.[Br-]` [Example 54]: in data set [2], the “GI50 ACHN (kidney cancer)” value was found to be 3.78 µg/mL. Further, the “GI50 PC-3 (prostate ancer)” value in data set [3] came to 0.53 µg/mL. In data set [4], the “GI50 NUGC-3 (gastric cancer)” value was 1.61 µg/mL. Further, the “GI50 MBA-MB-231 (breast cancer)” value in data set [5] amounted to 4.71 µg/mL.
`CCCCCCCCCCCCCC(=O)N1CC[N+](CC)(Cc2ccccc2)CC1` [Example 15, 1-benzyl-1-ethyl-4-tetradecanoyl-piperazin-1-ium bromide]: the GI50 in data set [2] was greater than 10 µg/mL; in data set [3], 1.42 µg/mL; in data set [4] it was 2.07 µg/mL; in data set [5], greater than 10 µg/mL.
For the compound `CCCCCCCCCCCCS(=O)(=O)N1CC[N+](C)(Cc2ccc(F)cc2)CC1` [Example 88, 4-(dodecane-1-sulfonyl)-1-(4-fluorobenzyl)-1-methyl-piperazin-1-ium bromide], the GI50 stood at 1.37 µg/mL in data set [2], 0.68 µg/mL in data set [3], 0.93 µg/mL in data set [4] and 1.59 µg/mL in data set [5].
For `C=CC[N+]1(C)CCN(C(=O)CCCCCCCCCCCCCCC)CC1.[Br-]` [Example 17, 1-allyl-4-hexadecanoyl-1-methyl-piperazin-1-ium bromide], in that order: 1.14 µg/mL, 0.46 µg/mL, 0.47 µg/mL and 1.28 µg/mL.
